These are literature values, as cited in patent publication US20220395496A1 (Hoffmann-La Roche Inc., priority 2019, published 2022).

Molecules are shown by their SMILES. Where only a bound is given, the exact number is not on record here.

Broadly, the IC50 is the concentration at which inhibition is half-maximal.

In one data set the target is T1, HEK/hTLR7 (Homo sapiens, UniProt Q9NYK1).
T1 construct: host or cells: HEK cells
T1 sequence (Q9NYK1 27-1049): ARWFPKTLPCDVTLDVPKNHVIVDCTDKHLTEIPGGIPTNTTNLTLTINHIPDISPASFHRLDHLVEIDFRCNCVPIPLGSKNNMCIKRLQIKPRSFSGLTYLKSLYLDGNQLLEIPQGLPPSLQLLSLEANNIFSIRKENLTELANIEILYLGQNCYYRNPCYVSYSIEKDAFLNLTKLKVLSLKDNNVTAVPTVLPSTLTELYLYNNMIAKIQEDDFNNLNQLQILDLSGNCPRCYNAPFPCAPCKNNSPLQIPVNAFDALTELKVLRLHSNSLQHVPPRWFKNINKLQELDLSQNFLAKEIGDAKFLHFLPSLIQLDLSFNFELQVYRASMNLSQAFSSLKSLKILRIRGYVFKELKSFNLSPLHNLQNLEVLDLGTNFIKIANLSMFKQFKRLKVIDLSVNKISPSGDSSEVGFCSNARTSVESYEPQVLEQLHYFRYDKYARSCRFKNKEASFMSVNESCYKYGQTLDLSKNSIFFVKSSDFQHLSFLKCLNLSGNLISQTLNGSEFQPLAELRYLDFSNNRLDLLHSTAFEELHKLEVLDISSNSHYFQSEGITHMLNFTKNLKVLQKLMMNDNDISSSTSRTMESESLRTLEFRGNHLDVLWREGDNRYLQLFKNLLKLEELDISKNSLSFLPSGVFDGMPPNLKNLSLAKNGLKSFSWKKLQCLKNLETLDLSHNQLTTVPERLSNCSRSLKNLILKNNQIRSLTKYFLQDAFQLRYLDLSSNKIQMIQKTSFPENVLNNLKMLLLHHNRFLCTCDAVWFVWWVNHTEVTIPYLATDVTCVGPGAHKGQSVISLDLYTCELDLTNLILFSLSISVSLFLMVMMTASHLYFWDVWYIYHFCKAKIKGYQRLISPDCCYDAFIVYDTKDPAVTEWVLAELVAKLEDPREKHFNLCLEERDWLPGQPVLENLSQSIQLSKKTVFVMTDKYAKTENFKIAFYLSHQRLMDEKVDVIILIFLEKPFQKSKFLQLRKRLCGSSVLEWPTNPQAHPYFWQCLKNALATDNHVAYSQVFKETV
The settings on record: data disclosed in WO2015057655; cited from earlier work.

Another data set deals with T2, HEK/hTLR9 (Homo sapiens, UniProt Q9NR96).
T2 construct: host or cells: HEK cells
T2 sequence (Q9NR96 26-1032): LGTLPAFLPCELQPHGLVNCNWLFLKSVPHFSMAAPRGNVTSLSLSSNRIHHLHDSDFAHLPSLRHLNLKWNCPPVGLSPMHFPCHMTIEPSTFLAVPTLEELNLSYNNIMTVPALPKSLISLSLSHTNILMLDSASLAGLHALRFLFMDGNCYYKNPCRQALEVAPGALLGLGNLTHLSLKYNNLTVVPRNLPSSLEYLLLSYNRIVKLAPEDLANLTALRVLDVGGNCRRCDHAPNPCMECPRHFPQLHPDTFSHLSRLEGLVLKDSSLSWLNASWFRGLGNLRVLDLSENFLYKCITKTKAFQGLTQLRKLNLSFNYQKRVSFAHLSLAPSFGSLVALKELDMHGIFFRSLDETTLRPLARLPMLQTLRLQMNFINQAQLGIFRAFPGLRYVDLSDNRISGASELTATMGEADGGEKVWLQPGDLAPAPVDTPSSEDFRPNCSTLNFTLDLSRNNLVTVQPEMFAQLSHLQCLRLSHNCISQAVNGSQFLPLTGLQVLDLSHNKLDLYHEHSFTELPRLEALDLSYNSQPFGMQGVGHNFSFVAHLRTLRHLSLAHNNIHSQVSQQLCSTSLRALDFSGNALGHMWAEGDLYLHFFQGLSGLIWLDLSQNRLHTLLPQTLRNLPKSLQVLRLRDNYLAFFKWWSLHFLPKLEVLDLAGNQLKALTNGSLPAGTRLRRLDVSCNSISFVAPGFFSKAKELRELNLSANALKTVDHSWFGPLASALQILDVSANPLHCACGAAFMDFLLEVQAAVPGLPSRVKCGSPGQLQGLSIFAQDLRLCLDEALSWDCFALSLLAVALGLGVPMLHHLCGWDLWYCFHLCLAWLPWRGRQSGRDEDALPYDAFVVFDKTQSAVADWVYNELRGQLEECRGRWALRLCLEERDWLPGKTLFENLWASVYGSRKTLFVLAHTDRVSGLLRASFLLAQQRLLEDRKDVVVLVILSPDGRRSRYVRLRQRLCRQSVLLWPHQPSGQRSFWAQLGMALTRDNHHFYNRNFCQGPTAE
As to conditions: data disclosed in WO2015057655; cited from earlier work.

In the case of `CC(N[C@@H]1C[C@H](C)CN(c2ccc(C#N)c3ncccc23)C1)c1ccccn1` (some centres unmarked) [ER-899607], the IC50 on HEK/hTLR7 is 149 nM; on HEK/hTLR9, greater than 10000 nM.
Take `C[C@H]1C[C@@H](NCc2ncco2)CN(c2ccc(C#N)c3ncccc23)C1` [ER-899551]: the IC50 at HEK/hTLR7 is 43 nM; at HEK/hTLR9, greater than 10000 nM.
In the case of `C[C@H]1C[C@@H](NCc2ccc(C(F)(F)F)cn2)CN(c2ccc(C#N)c3ncccc23)C1` [ER-899543], the results for the IC50 at HEK/hTLR7 and on HEK/hTLR9 were 48 nM and greater than 10000 nM, respectively.
Consider `C[C@H]1C[C@@H](NCc2cn(C)cn2)CN(c2ccc(C#N)c3ncccc23)C1` [ER-899552], for which the figures for the IC50 at HEK/hTLR7 and at HEK/hTLR9 were 207 nM and 1970 nM, respectively.
